In this experiment the target is Bcl-xL (Homo sapiens). Briefly: Binding affinity to human Bcl-xL protein by fluorescence polarization assay. Background: Polarisation of emitted light reports the rotation of a fluorescent probe.

Each structure is given as a SMILES string.

Take `O=C(c1ccc(Oc2ccccc2)cc1)c1cc(C(=O)c2nc3ccccc3s2)c(O)c(O)c1O`: affinity was put at a Ki of 1110 nM.

Values taken from BindingDB's records for doi:10.1021/jm701358v (2008).
